Source: US20100047327A1, “Adjuvant for Transdermal or Transmucosal Administration and Pharmaceutical Preparation Containing the Same” (priority 2007, published 2010)

Legend:
[1] = tested on: OVA specific IgG antibody; assay: OVA specific IgG antibody titer, microneedle coated with antigen emulsion; format: in vivo, hairless rat; details: microneedle coated with emulsion antigen solution:oil or alcohol:Tween 80 1:1:0.01, OVA 2 mg/patch, two hours; FIG. 4
Procedure: OVA was prepared in the abdomen of the male hairless rat of seven to eight weeks old to give 2 mg/patch, and in the microneedle (OVA+5% polyvinyl alcohol) group, the needle part of the microneedle was coated with an antigen and 5% polyvinyl alcohol liquid [mixed in antigen solution:10% polyvinyl alcohol=1:1], and punctured for two hours. In addition, in microneedle (OVA+olive oil) or (OVA+lauryl alcohol) group, emulsion [antigen solution:olive oil or lauryl alcohol:surfactant (Tween 80)=1:1:0.01] was coated on the needle of the microneedle and punctured it for two hours. Administration was carried out 0, 2 and 4 weeks later, and blood collection was carried out 2, 4 and 5 weeks later, and OVA specific IgG antibody titers were measured by ELISA.

[2] = Skin irritation score, intracutaneous versus transdermal administration; format: in vivo, BALB/c mouse; set-up: Skin irritation score Intracutaneous administration: key to the marks not given beside the values; details: for Skin irritation score Transdermal administration: 50 μL of acetone solution (50%) applied transdermally
[3] = tested on: OVA specific IgG antibody; assay: OVA specific IgG antibody titer, antigen-coated microneedle after lauryl alcohol applied to skin; format: in vivo, hairless rat; details: LA applied to skin before puncture with OVA-coated microneedle (2 mg/patch, two hours); FIG. 3
Procedure: OVA was prepared in the abdomen of the male hairless rat of seven to eight weeks old to give 2 mg/patch, and in the microneedle group, the needle part of the microneedle was coated with an antigen and 5% polyvinyl alcohol liquid, and physiological saline was dropped on the skin side, and punctured for two hours. In addition, in microneedle+lauryl alcohol group, lauryl alcohol was applied to skin beforehand, physiological saline was dropped on the skin side, and the needle of the microneedle coated with the above-described antigen and 5% polyvinyl alcohol liquid was punctured for two hours. Administration was carried out 0, 2 and 4 weeks later, and blood collection was carried out 2, 4 and 5 weeks later, and OVA specific IgG antibody titers were measured by ELISA.

[4] = tested on: MHC Class II molecule of the lymph cell; assay: Expression of MHC Class II molecule of lymph cells by flow cytometry after transdermal administration of adjuvant; format: in vivo, BALB/c mouse; details: FIG. 1; for number of the lymph cells expressing an MHC Class II molecule: 50 μL of acetone solution (50%) applied transdermally to shaved abdomen, lymph node five days later
[5] = tested on: OVA specific IgG antibody; assay: OVA specific IgG antibody titer, microneedle coated with antigen emulsion; format: in vivo, BALB/c mouse; details: microneedle coated with emulsion antigen solution:alcohol:Tween 80 1:1:0.01, OVA 0.1 mg/patch, two hours; FIG. 5
Procedure: In addition, in microneedle (OVA+lauryl alcohol or OVA+oleyl alcohol) group, emulsion [antigen solution:lauryl alcohol or oleyl alcohol:surfactant (Tween 80)=1:1:0.01] was coated on the needle of the microneedle and punctured it for two hours. Administration was carried out 0, 2 and 4 weeks later, and blood collection was carried out 2, 4 and 5 weeks later, and OVA specific IgG antibody titers were measured by ELISA.

influenza H3N2 = assay: Antibody titer after transnasal administration of influenza H3N2 antigen plus LA; details: influenza H3N2 1 μg/head, antigen solution:LA:Tween 80 9:1:0.05; FIG. 6
Procedure: To a male BALB/c mouse of seven to eight weeks old, under inhalation anesthesia (Sevofrane) with matching with breathing, 50 μL of antigen (influenza H3N2 (Biogenesis company): 1 μg/head) was administered to a nose by dripping (transnasal (antigen)). The antigen+LA, [mixed in antigen solution:LA:surfactant (Tween 80)=9:1:0.05] was administered to a nose by dripping (transnasal (antigen+LA)).
In addition, in the intracutaneous treatment group, the abdomen was shaved under Nembutal anesthesia, 50 mL of antigen (influenza H3N2: 0.07 μg/head) was administered intracutaneously (intracutaneous (antigen)). The antigen+LA, [mixed in antigen solution:LA:surfactant (Tween 80)=1:1:0.01] was administered intracutaneously (intracutaneous (antigen+LA)). Boost was made in the same condition 2 and 4 weeks after the first time administration, and blood was collected from fundus after 2, 4 and 5 weeks and antibody titers were measured.

OVA = assay: Antibody titer after oral mucosal administration of OVA plus LA emulsion; format: in vivo, BALB/c mouse; details: OVA 2500 μg/head, LA groups (20) and (50), boost after one week, blood after two weeks; FIG. 7
[6] = tested on: OVA specific IgG antibody; assay: OVA specific IgG antibody titer by ELISA, intracutaneous OVA plus transdermal adjuvant; format: in vivo, BALB/c mouse; details: for Antibody titer (×10^4): OVA 10 μg/head intracutaneous, then 25 μL adjuvant applied transdermally, dosing at 0, 2, 4 weeks, data after five weeks; for immune response of the antigen IgG: intracutaneous OVA plus transdermal adjuvant on intact skin, in words
Procedure: OVA (an antigen: Ovalbumin, Sigma Company) was prepared by dissolving it in physiological saline to give 10 μg/head, and to the OVA alone group, 25 μL of OVA aqueous solution was administered intracutaneously. To the group in which various kinds of adjuvants (lauryl alcohol, oleyl alcohol, isostearyl alcohol, octyl dodecanol, polyethylene glycol monolaurate and Freund complete adjuvant (FCA)) were used in combination, immediately after OVA solution was administered intracutaneously, 25 μL of each adjuvant solution was administered (applied) transdermally on the abdominal skin surface. Administration was carried out 0, 2 and 4 weeks later, and blood collection was carried out 2, 4 and 5 weeks later, and OVA specific IgG antibody titer after 2, 4 and 5 weeks was measured by ELISA.

[7] = tested on: OVA specific IgG antibody; assay: OVA specific IgG antibody titer by ELISA, OVA/LA emulsion with microneedle, skin abrading or iontophoresis; format: in vivo, BALB/c mouse; details: FIG. 2
Procedure: OVA was prepared to give 100 μg/head, and to the OVA alone group, OVA aqueous solution was applied, and in the group in which lauryl alcohol (LA) was used in combination, the solution in which OVA solution, LA and Tween 20 (emulsifier) was mixed in the ratio of 1:1:0.01 which was emulsified was prepared and used. In the microneedle application group, 1 cm^2 of a microneedle (needle length: about 200 μm, 400 needles/cm^2) was punctured to abdominal skin that had been shaved beforehand, thereafter 50 μL of the above-mentioned emulsion solution was applied immediately. In addition, in skin abrading treatment group, skin was abraded five times using 3M RED Dot™ 2236 instead of a microneedle, thereafter 50 μL of the emulsion solution was applied. In iontophoresis application group, 50 μL of the emulsion solution was applied to shaved abdominal skin, thereafter an iontophoresis preparation (a non-woven fabric preparation: Ag, Ag/AgCl 1 cm^2) in which physiological saline was impregnated to the non-woven fabric was affixed in the applied part, and a direct current (0.4 mA/patch) was applied for one hour. Administration was carried out 0, 2 and 4 weeks later, and blood collection was carried out 2, 4 and 5 weeks later, and OVA specific IgG antibody titers were measured by ELISA.

Molecule	Skin irritation score Transdermal administration [2]	number of the lymph cells expressing an MHC Class II molecule [4]	Antibody titer (×10^4) [6]	other results
CCCCCCCCCCCCO [Lauryl alcohol, lauryl alcohol]	not detected	remarkable increase	2.1 ×10^4	OVA specific IgG antibody titer [1]: remarkably increased; OVA specific IgG antibody titer [3]: remarkably increased; adjuvant effect (MHC Class II expression), comparison among adjuvants ([4]; transdermal administration): most remarkable; OVA specific IgG antibody titer [5]: remarkably increased; antibody titer, transnasal (antigen+LA) versus antigen alone (influenza H3N2): increase of the antibody titer was observed; antibody titer, oral mucosal administration (OVA): increase of the antibody titer was observed depending on the LA concentration; immune response of the antigen IgG [6]: highest immune response; antigen specific IgG, iontophoresis (IP+LA) ([7]; OVA 100 μg/head, OVA:LA:Tween 20 1:1:0.01 emulsion, 0.4 mA/patch for one hour, four weeks later): highest immune response; antigen specific IgG, skin abrading pre-treatment (abrading+LA) ([7]; OVA 100 μg/head, emulsion applied after abrading, four weeks later): high immune response; antigen specific IgG, microneedle (microneedle+LA) ([7]; OVA 100 μg/head, emulsion applied after microneedle puncture, four weeks later): high immune response; antibody titer compared to antigen administered alone ([7]; lauryl alcohol used together with OVA): significant increase
CCCCCCCC/C=C\CCCCCCCC(=O)O [oleic acid]	–	remarkable increase	–	–
polyethylene glycol monolaurate	not detected	–	0.9 ×10^4	–
CCCCCCCCCCC(CO)CCCCCCCC (stereo not drawn) [Octyl dodecanol, octyl dodecanol]	not detected	–	0.6 ×10^4	–
sorbitan monooleate	–	remarkable increase	–	–
sorbitan monolaurate	not detected	remarkable increase	–	–
CCCCCCCC/C=C\CCCCCCCCO [Oleyl alcohol, oleyl alcohol]	–	remarkable increase	2.1 ×10^4	Skin irritation score Intracutaneous administration ([2]; mouse, in vivo): +++; OVA specific IgG antibody titer [5]: remarkably increased; immune response of the antigen IgG [6]: highest immune response
CC(C)CCCCCCCCCCCCCCCO [Isostearyl alcohol, isostearyl alcohol]	not detected	remarkable increase	1.3 ×10^4	–
